Experimental data published in patent publication US20230085307A1, “PYRIDAZINONE COMPOUND AND HERBICIDE” (NISSAN CHEMICAL CORPORATION, priority 2019, published 2023).

Experiments:
oval-leafed pondweed = assay: Test Example 1: herbicidal activity, application before weed generation under submerged conditions (Table 16, symbol C); type: in vivo, oval-leafed pondweed (Monochoria vaginalis); details: amount of applied herbicide 320 g/ha
Summary of the method: (§1)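 Emulsion formulation, water-diluted to set dose, was put onto the flooded surface (4 cm depth, alluvial soil) the same day weeds were sown and 2.5-leaf rice transplanted. After 3 weeks at 25-30 °C under glass, each species was rated 0 (≤5% kill) to 5 (≥90% kill).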

southern crabgrass [1] = assay: Test Example 4: herbicidal effect by soil treatment (Table 19, symbol F); type: in vivo, southern crabgrass (Digitaria ciliaris); details: amount of applied herbicide 320 g/ha
Summary of the method: (§2)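 Step 1: sow seeds in sterilized diluvial soil, cover ~1.5 cm. Step 2: spray diluted emulsion onto soil surface at predetermined rate. Step 3: greenhouse, 25–30° C, three weeks. Step 4: grade effect on each plant by earlier criteria.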

rice flat sedge = assay: Test Example 3: herbicidal effect by foliage application, Wagner pot (Table 18, symbol E); type: in vivo, rice flat sedge (Cyperus iria)
Summary of the method: (§3)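 Plants were sown in alluvial soil held under 0.1–0.5 cm standing water and grown 14 days in a greenhouse at 25–30 °C. An emulsifiable formulation, water-diluted to the set dose, was then sprayed onto the foliage, and effects were scored three weeks later using previously defined criteria.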

blackgrass [2] = assay: Test Example 5: herbicidal effect by foliage application, plastic box (Table 20, symbol J); type: in vivo, blackgrass (Alopecurus myosuroides); details: foliage application, 320 g/ha, three weeks after application
Summary of the method: (§4)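 Foliar spray test: emulsion formulation diluted in water to a set application rate, sprayed onto 14-day-old plants raised in diluvial soil at 25° C to 30° C under glass. Both herbicidal effect and crop effect rated visually three weeks later.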

late watergrass = assay: Test Example 1: herbicidal activity, application before weed generation under submerged conditions (Table 16, symbol A); type: in vivo, late watergrass (Echinochloa oryzicola); details: amount of applied herbicide 320 g/ha
Summary of the method: as §1

barnyard grass [3] = assay: Test Example 3: herbicidal effect by foliage application, Wagner pot (Table 18, symbol H); type: in vivo, barnyard grass (Echinochloa crus-galli)
Summary of the method: as §3

Chinese sprangletop = assay: Test Example 3: herbicidal effect by foliage application, Wagner pot (Table 18, symbol D); type: in vivo, chinese sprangletop (Leptochloa chinensis)
Summary of the method: as §3

wild oat [4] = assay: Test Example 5: herbicidal effect by foliage application, plastic box (Table 20, symbol I); type: in vivo, wild oat (Avena fatua); details: foliage application, 320 g/ha, three weeks after application
Summary of the method: as §4

Italian ryegrass [5] = assay: Test Example 5: herbicidal effect by foliage application, plastic box (Table 20, symbol K); type: in vivo, Italian ryegrass (Lolium multiflorum); details: foliage application, 320 g/ha, three weeks after application
Summary of the method: as §4

persian speedwell [6] = assay: Test Example 5: herbicidal effect by foliage application, plastic box (Table 20, symbol R); type: in vivo, Persian speedwell (Veronica persica); details: foliage application, 320 g/ha, three weeks after application
Summary of the method: as §4

Italian ryegrass [7] = assay: Test Example 4: herbicidal effect by soil treatment (Table 19, symbol K); type: in vivo, Italian ryegrass (Lolium multiflorum); details: amount of applied herbicide 320 g/ha
Summary of the method: as §2

velvetleaf [8] = assay: Test Example 4: herbicidal effect by soil treatment (Table 19, symbol M); type: in vivo, velvetleaf (Abutilon theophrasti); details: amount of applied herbicide 320 g/ha
Summary of the method: as §2

barnyard grass [9] = assay: Test Example 5: herbicidal effect by foliage application, plastic box (Table 20, symbol H); type: in vivo, barnyard grass (Echinochloa crus-galli); details: foliage application, 320 g/ha, three weeks after application
Summary of the method: as §4

chickweed = assay: Test Example 4: herbicidal effect by soil treatment (Table 19, symbol P); type: in vivo, common chickweed (Stellaria media); details: amount of applied herbicide 320 g/ha
Summary of the method: as §2

Japanese bulrush = assay: Test Example 1: herbicidal activity, application before weed generation under submerged conditions (Table 16, symbol B); type: in vivo, Japanese bulrush (Schoenoplectus juncoides); details: amount of applied herbicide 320 g/ha
Summary of the method: as §1

windgrass [10] = assay: Test Example 5: herbicidal effect by foliage application, plastic box (Table 20, symbol L); type: in vivo, windgrass (Apera spica-venti); details: foliage application, 320 g/ha, three weeks after application
Summary of the method: as §4

barnyard grass [11] = assay: Test Example 4: herbicidal effect by soil treatment (Table 19, symbol H); type: in vivo, barnyard grass (Echinochloa crus-galli); details: amount of applied herbicide 320 g/ha
Summary of the method: as §2

blackgrass [12] = assay: Test Example 4: herbicidal effect by soil treatment (Table 19, symbol J); type: in vivo, blackgrass (Alopecurus myosuroides); details: amount of applied herbicide 320 g/ha
Summary of the method: as §2

wild oat [13] = assay: Test Example 4: herbicidal effect by soil treatment (Table 19, symbol I); type: in vivo, wild oat (Avena fatua); details: amount of applied herbicide 320 g/ha
Summary of the method: as §2

southern crabgrass [14] = assay: Test Example 5: herbicidal effect by foliage application, plastic box (Table 20, symbol F); type: in vivo, southern crabgrass (Digitaria ciliaris); details: foliage application, 320 g/ha, three weeks after application
Summary of the method: as §4

green foxtail [15] = assay: Test Example 4: herbicidal effect by soil treatment (Table 19, symbol G); type: in vivo, green foxtail (Setaria viridis); details: amount of applied herbicide 320 g/ha
Summary of the method: as §2

lambsquarters [16] = assay: Test Example 4: herbicidal effect by soil treatment (Table 19, symbol O); type: in vivo, lambsquarters (Chenopodium album); details: amount of applied herbicide 320 g/ha
Summary of the method: as §2

green foxtail [17] = assay: Test Example 5: herbicidal effect by foliage application, plastic box (Table 20, symbol G); type: in vivo, green foxtail (Setaria viridis); details: foliage application, 320 g/ha, three weeks after application
Summary of the method: as §4

lambsquarters [18] = assay: Test Example 5: herbicidal effect by foliage application, plastic box (Table 20, symbol O); type: in vivo, lambsquarters (Chenopodium album); details: foliage application, 320 g/ha, three weeks after application
Summary of the method: as §4

persian speedwell [19] = assay: Test Example 4: herbicidal effect by soil treatment (Table 19, symbol R); type: in vivo, Persian speedwell (Veronica persica); details: amount of applied herbicide 320 g/ha
Summary of the method: as §2

windgrass [20] = assay: Test Example 4: herbicidal effect by soil treatment (Table 19, symbol L); type: in vivo, windgrass (Apera spica-venti); details: amount of applied herbicide 320 g/ha
Summary of the method: as §2

redroot pigweed = assay: Test Example 4: herbicidal effect by soil treatment (Table 19, symbol N); type: in vivo, redroot pigweed (Amaranthus retroflexus); details: amount of applied herbicide 320 g/ha
Summary of the method: as §2

velvetleaf [21] = assay: Test Example 5: herbicidal effect by foliage application, plastic box (Table 20, symbol M); type: in vivo, velvetleaf (Abutilon theophrasti); details: foliage application, 320 g/ha, three weeks after application
Summary of the method: as §4

[22] = amount of applied herbicide 320 g/ha

Row | SMILES | Herbicidal effect, C: oval-leafed pondweed (oval-leafed pondweed) | F: southern crabgrass, herbicidal effect grade (southern crabgrass [1]) | herbicidal effect on blackgrass (J) (blackgrass [2]) | Herbicidal effect, A: late watergrass (late watergrass) | herbicidal effect on wild oat (I) (wild oat [4]) | herbicidal effect on Italian ryegrass (K) (Italian ryegrass [5]) | herbicidal effect on persian speedwell (R) (persian speedwell [6]) | K: Italian ryegrass, herbicidal effect grade (Italian ryegrass [7]) | M: velvetleaf, herbicidal effect grade (velvetleaf [8]) | herbicidal effect on barnyard grass (H) (barnyard grass [9]) | P: chickweed, herbicidal effect grade (chickweed) | Herbicidal effect, B: Japanese bulrush (Japanese bulrush) | herbicidal effect on windgrass (L) (windgrass [10]) | H: barnyard grass, herbicidal effect grade (barnyard grass [11]) | J: blackgrass, herbicidal effect grade (blackgrass [12]) | I: wild oat, herbicidal effect grade (wild oat [13]) | herbicidal effect on southern crabgrass (F) (southern crabgrass [14]) | G: green foxtail, herbicidal effect grade (green foxtail [15]) | O: lambsquarters, herbicidal effect grade (lambsquarters [16]) | herbicidal effect on green foxtail (G) (green foxtail [17]) | further results
1 | COc1ccc(-c2sc3cc(OC)c(Cl)cc3c2-c2c(O)c(C)nn(C)c2=O)cc1 [5-070] | 0 (Herbicidal rate of 5% or less (almost no effect)) | 0 (Herbicidal rate of 5% or less (almost no effect)) | 0 (Herbicidal rate of 5% or less (almost no effect)) | 0 (Herbicidal rate of 5% or less (almost no effect)) | 0 (Herbicidal rate of 5% or less (almost no effect)) | 0 (Herbicidal rate of 5% or less (almost no effect)) | 4 (Herbicidal rate of 70% or more and less than 90%) | 0 (Herbicidal rate of 5% or less (almost no effect)) | 0 (Herbicidal rate of 5% or less (almost no effect)) | 0 (Herbicidal rate of 5% or less (almost no effect)) | 1 (Herbicidal rate of 5% or more and less than 20%) | 2 (Herbicidal rate of 20% or more and less than 40%) | 0 (Herbicidal rate of 5% or less (almost no effect)) | 0 (Herbicidal rate of 5% or less (almost no effect)) | 0 (Herbicidal rate of 5% or less (almost no effect)) | 0 (Herbicidal rate of 5% or less (almost no effect)) | 0 (Herbicidal rate of 5% or less (almost no effect)) | 0 (Herbicidal rate of 5% or less (almost no effect)) | 0 (Herbicidal rate of 5% or less (almost no effect)) | 0 (Herbicidal rate of 5% or less (almost no effect)) | herbicidal effect on rice flat sedge (E) (rice flat sedge; 320 g/ha): 0 (Herbicidal rate of 5% or less (almost no effect)); herbicidal effect on barnyard grass (H) (barnyard grass [3]; 320 g/ha): 3 (Herbicidal rate of 40% or more and less than 70%); herbicidal effect on Chinese sprangletop (D) (Chinese sprangletop; 320 g/ha): 0 (Herbicidal rate of 5% or less (almost no effect)); herbicidal effect on lambsquarters (O) (lambsquarters [18]): 0 (Herbicidal rate of 5% or less (almost no effect)); R: persian speedwell, herbicidal effect grade (persian speedwell [19]): 3 (Herbicidal rate of 40% or more and less than 70%); L: windgrass, herbicidal effect grade (windgrass [20]): 0 (Herbicidal rate of 5% or less (almost no effect)); N: redroot pigweed, herbicidal effect grade (redroot pigweed): 0 (Herbicidal rate of 5% or less (almost no effect)); herbicidal effect on velvetleaf (M) (velvetleaf [21]): 0 (Herbicidal rate of 5% or less (almost no effect))
2 | Cc1nn(C)c(=O)c(-c2c(-c3ccc(Cl)cc3)oc3ccc(F)cc23)c1O [9-016] | 0 (Herbicidal rate of 5% or less (almost no effect)) | 3 (Herbicidal rate of 40% or more and less than 70%) | 4 (Herbicidal rate of 70% or more and less than 90%) | 3 (Herbicidal rate of 40% or more and less than 70%) | 4 (Herbicidal rate of 70% or more and less than 90%) | 5 (Herbicidal rate of 90% or more (almost completely withered)) | 5 (Herbicidal rate of 90% or more (almost completely withered)) | 4 (Herbicidal rate of 70% or more and less than 90%) | 1 (Herbicidal rate of 5% or more and less than 20%) | 5 (Herbicidal rate of 90% or more (almost completely withered)) | 3 (Herbicidal rate of 40% or more and less than 70%) | 0 (Herbicidal rate of 5% or less (almost no effect)) | 4 (Herbicidal rate of 70% or more and less than 90%) | 4 (Herbicidal rate of 70% or more and less than 90%) | 0 (Herbicidal rate of 5% or less (almost no effect)) | 2 (Herbicidal rate of 20% or more and less than 40%) | 4 (Herbicidal rate of 70% or more and less than 90%) | 4 (Herbicidal rate of 70% or more and less than 90%) | 4 (Herbicidal rate of 70% or more and less than 90%) | 5 (Herbicidal rate of 90% or more (almost completely withered)) | Herbicidal effect on E (rice flat sedge), foliage application (rice flat sedge; [22]): 4 (Herbicidal rate of 70% or more and less than 90%); Herbicidal effect on H (barnyard grass), foliage application (barnyard grass [3]; [22]): 5 (Herbicidal rate of 90% or more (almost completely withered)); Herbicidal effect on D (Chinese sprangletop), foliage application (Chinese sprangletop; [22]): 5 (Herbicidal rate of 90% or more (almost completely withered)); herbicidal effect on lambsquarters (O) (lambsquarters [18]): 5 (Herbicidal rate of 90% or more (almost completely withered)); R: persian speedwell, herbicidal effect grade (persian speedwell [19]): 5 (Herbicidal rate of 90% or more (almost completely withered)); L: windgrass, herbicidal effect grade (windgrass [20]): 4 (Herbicidal rate of 70% or more and less than 90%); N: redroot pigweed, herbicidal effect grade (redroot pigweed): 5 (Herbicidal rate of 90% or more (almost completely withered)); herbicidal effect on velvetleaf (M) (velvetleaf [21]): 5 (Herbicidal rate of 90% or more (almost completely withered))
